≈ marks a conversion by molar mass, not a printed value. Read-outs that look alike come from different tables or passages of the source. Marks after values point to notes of the source that are not given here. Non-standard residues stand in square brackets, D forms with d. Residues, ends and D or L forms follow the SMILES beside them.
Key:
aspergillus fumigatus = test: microbe, parasite or virus in culture; format: cell-based; conditions: for MIC: JLC 30506 aspergillus fumigatus, read-out: Minimal inhibitory concentration
Protocol: (§1) • (1) Test strains: monilia albicans (candida albicans), candida glabrata, candida krusei, candida tropicalis, aspergillus fumigatus and flavous. Antimicrobial peptides PL-13 (SEQ ID NO: 1) under test are supplied by Jiangsu ProteLight Pharmaceutical & Biotechnology Co., LTD. […] Activation of bacterial strains is conducted at a humidity level of 60% and 25° C. (for aspergillus) or 37° C. (for candida). (2) 0.9% stroke-physiological saline solution comprising 0.5% Tween-80 is used to prepare bacterial suspension for experiment. Hemocytometer is utilized to adjust concentration of the bacterial suspension to 1-3×10^6 CFU/ml (0.5 McFarland units) to make stock solution in reserve at -20° C. During the sensitivity test, the RPMI-1640 liquid medium is diluted 1000 times to 1-3×10^3 CFU/ml. (3) The RPMI-1640 liquid is utilized as diluent to 10-fold dilute stock solution of peptides. […] The eleventh orifice is used as living control orifice, while the twelfth one as blank control. (4) The RPMI-1640 liquid is utilized as diluent to 10-fold dilute stock solution of FCZ and ICZ. […] Ditto for other operations.

aspergillus flavous = test: microbe, parasite or virus in culture; format: cell-based; conditions: for MIC: JLC 30784 aspergillus flavous, read-out: Minimal inhibitory concentration
Protocol: as §1

candida albicans = test: microbe, parasite or virus in culture; format: cell-based; conditions: for MIC: Candida albicans, read-out: Minimal inhibitory concentration
Protocol: as §1

candida glabrata = test: microbe, parasite or virus in culture; format: cell-based; conditions: for MIC: Nakaseomyces glabratus, read-out: Minimal inhibitory concentration
Protocol: as §1

candida tropicalis = test: microbe, parasite or virus in culture; format: cell-based; conditions: for MIC: Candida tropicalis, read-out: Minimal inhibitory concentration
Protocol: as §1

candida krusei = test: microbe, parasite or virus in culture; format: cell-based; conditions: for MIC: Pichia kudriavzevii, read-out: Minimal inhibitory concentration
Excerpt: • (1) Test strains: monilia albicans (candida albicans), candida glabrata, candida krusei, candida tropicalis, aspergillus fumigatus and flavous. (2) Quality control strains: candida krusei JLC30366 (ATCC6258). Antimicrobial peptides PL-13 (SEQ ID NO: 1) under test are supplied by Jiangsu ProteLight Pharmaceutical & Biotechnology Co., LTD. […] (1) The bacterial strains which preserved on PDA slant are respectively inoculated onto PDA plate and slant medium. Activation of bacterial strains is conducted at a humidity level of 60% and 25° C. (for aspergillus) or 37° C. (for candida). (2) 0.9% stroke-physiological saline solution comprising 0.5% Tween-80 is used to prepare bacterial suspension for experiment. Hemocytometer is utilized to adjust concentration of the bacterial suspension to 1-3×10^6 CFU/ml (0.5 McFarland units) to make stock solution in reserve at -20° C. During the sensitivity test, the RPMI-1640 liquid medium is diluted 1000 times to 1-3×10^3 CFU/ml. (3) The RPMI-1640 liquid is utilized as diluent to 10-fold dilute stock solution of peptides. […] The eleventh orifice is used as living control orifice, while the twelfth one as blank control. (4) The RPMI-1640 liquid is utilized as diluent to 10-fold dilute stock solution of FCZ and ICZ. […] Ditto for other operations.

[1] = test system: red cell suspension from healthy volunteers; test: Hemolytic activity test; format: cell-based, human; conditions: for Hemolytic activity, absorbancy (OD value) at 570 nm: 4 hours at 37° C., OD higher than 0.1 is hemolytic, n = 3
Protocol: (1) Samples are serial diluted with sterile PBS to 1000, 500, 250, 125, 64, 32, 16, 8, 4 μg/ml in turn and spread in 96-well plates, 100 μl per orifice.
(2) We use distilled water as positive control, sterile PBS as negative control and blank orifice with 200 μl PBS solution added. Each concentration above is made in triplicate.
(3) We take 3 ml whole blood from healthy volunteers and washed it with sterile PBS three times to prepare fresh 2% concentration red cell suspension. Then we added 100 μl red cell suspension into each orifice and made them cultured for 4 hours at 37° C. in the incubator. After centrifuged by plate-swashing centrifuge, the supernatant liquid is collected and measured absorbancy (OD value) at a wavelength of 570 nm. Then we compared the hemolytic efficiency of these concentrations.
(4) According to the documents standard, OD value which is higher than 0.1 is hemolytic concentration.

Enterococcus faecium = test: microbe, parasite or virus in culture; format: cell-based
Protocol: (§2) The experimental strains are 37 standard strains preserved in lab and clinical isolated bacteria, including drug-resistant bacteria and quality-control bacteria selecting Staphylococcus aureus ATCC29213, Enterococcus faecalis ATCC29212, Escherichia coli ATCC25922, Pseudomonas aeruginosa ATCC27853 and klebsiella pneumoniae ATCC700603.
(§3) (1) Sensitivity test is conducted with two-fold agar dilution method and Denlay multipoint inoculator. Test bacteria are cultured with nutrient broth and brain heart infusion.
(§4) (2) The drug is double diluted into different concentration with MH broth after dissolved and then placed in the plate respectively.
(§5) (4) After solidification of the culture medium in the plate, test bacteria (10^4CFU/point) are inoculated by multipoint inoculator and cultured for 18 hours at constant 35° C. Then observe the results.

[2] = test system: Acinetobacter calcoaceticus; test: microbe, parasite or virus in culture; format: cell-based
Protocol: as §2, §3, §4
(§6) (3) After dissolved, MH agar culture medium are injected into the plate with drug quantitatively and mixed to make the final concentration of drug are 0.03, 0.06, 0.125, . . . , 128 μg/ml respectively.
as §5

[3] = test system: Staphylococcus epidermidis; test: microbe, parasite or virus in culture; format: cell-based
Protocol: as §2, §3, §4, §6, §5

Escherichia = test: Therapeutic test of oral preparation on mice with systemic infection, survival time; format: in vivo, ICR mice; conditions: 80 mg/kg gavage three times a day for seven days, n = 10
Protocol: (§7) There are 30 male and 30 female ICR mice with the weight ranging from 18 g to 22 g. […] With trinitrophenal marking method, all the mice are raised with ordinary animal feeds in the ordinary animal houses and they can drink water freely. Alternating of light and dark is conducted every 12 hours.
(§8) 2. Infected Strains: Escherichia and Bacillus dysenteriae
(§9) (1) The preparation of bacterial suspension is the same as above.
(§10) (2) The Escherichia suspension cultured overnight is diluted to 1×10^7CFU/ml. The Bacillus dysenteriae suspension cultured overnight is diluted to 1×10^5CFU/ml. They are all applied in reserve.
(§11) (3) Except the blank control group, every other mouse is injected with 0.2 ml Escherichia suspension with the concentration of 1×10^7CFU/ml or 0.2 ml Bacillus dysenteriae suspension with the concentration of 1×10^5CFU/ml intraperitoneally to make model.
(§12) (4) Administration: The drugs are administered according to mice′ weight right after the model is ready. All the groups excepting the blank and the infected negative control groups are administered by gavaging with different dosage of drugs three times a day successively for seven days, and they are observed for fourteen days.
(§13) (5) Observe death of the animals and record their survival time.

Bacillus dysenteriae = test: as above; format: in vivo, ICR mice; conditions: 80 mg/kg gavage three times a day for seven days, n = 10
Protocol: as §7, §8, §9, §10, §11, §12, §13

[4] = JLC 30883 aspergillus fumigatus

OC(Cn1cncn1)(Cn1cncn1)c1ccc(F)cc1F [FCZ, Fluconazol, reference compound]
MIC (aspergillus fumigatus): > 64 µg/mL
Minimal inhibitory concentration (aspergillus fumigatus; [4]): >64 µg/mL
MIC (aspergillus flavous): > 64 µg/mL
Minimal inhibitory concentration (aspergillus flavous; JLC 40437 aspergillus flavous): >64 µg/mL
MIC (candida albicans; JLC 33659 candida albicans): 0.25 µg/mL (≈ 0.816 µM)
MIC (candida albicans; JLC 33660 candida albicans): 0.25 µg/mL (≈ 0.816 µM)
MIC (candida glabrata; JLC 30367 candida glabrata): 2 µg/mL (≈ 6.53 µM)
MIC (candida glabrata; JLC 31512 candida glabrata): 1 µg/mL (≈ 3.27 µM)
MIC (candida tropicalis; JLC 31379 candida tropicalis): 0.5 µg/mL (≈ 1.63 µM)
MIC (candida tropicalis; JLC 31384 candida tropicalis): 0.25 µg/mL (≈ 0.816 µM)
MIC (candida krusei; JLC 30366 candida krusei): 16 µg/mL (≈ 52.2 µM)
MIC (candida krusei; JLC 30383 candida krusei): 8 µg/mL (≈ 26.1 µM)

CCC(C)n1ncn(-c2ccc(N3CCN(c4ccc(OCC5COC(Cn6cncn6)(c6ccc(Cl)cc6Cl)O5)cc4)CC3)cc2)c1=O (stereo not drawn) [ICZ, Itraconazole, reference compound]
MIC (aspergillus fumigatus): 0.125 µg/mL (≈ 0.177 µM)
Minimal inhibitory concentration (aspergillus fumigatus; [4]): 0.125 µg/mL (≈ 0.177 µM)
MIC (aspergillus flavous): 0.125 µg/mL (≈ 0.177 µM)
Minimal inhibitory concentration (aspergillus flavous; JLC 40437 aspergillus flavous): 0.125 µg/mL (≈ 0.177 µM)
MIC (candida albicans; JLC 33659 candida albicans): 0.03 µg/mL (≈ 0.0425 µM)
MIC (candida albicans; JLC 33660 candida albicans): 0.0625 µg/mL (≈ 0.0886 µM)
MIC (candida glabrata; JLC 30367 candida glabrata): 0.0625 µg/mL (≈ 0.0886 µM)
MIC (candida glabrata; JLC 31512 candida glabrata): 0.03 µg/mL (≈ 0.0425 µM)
MIC (candida tropicalis; JLC 31379 candida tropicalis): 0.03 µg/mL (≈ 0.0425 µM)
MIC (candida tropicalis; JLC 31384 candida tropicalis): 0.03 µg/mL (≈ 0.0425 µM)
MIC (candida krusei; JLC 30366 candida krusei): 0.25 µg/mL (≈ 0.354 µM)
MIC (candida krusei; JLC 30383 candida krusei): 0.25 µg/mL (≈ 0.354 µM)

CC(=O)N[C@H](Cc1ccccc1)C(=O)N[C@H](CCCCN)C(=O)N[C@H](CCCCN)C(=O)N[C@H](CC(C)C)C(=O)N[C@H](CCCCN)C(=O)N[C@H](CCCCN)C(=O)N[C@H](CCCCN)C(=O)N[C@H](Cc1ccccc1)C(=O)N[C@H](CO)C(=O)N[C@H](CCCCN)C(=O)N[C@H](CC(C)C)C(=O)N[C@H](Cc1c[nH]c2ccccc12)C(=O)N[C@H](CC(N)=O)C(=O)N[C@H](Cc1c[nH]c2ccccc12)C(=O)N[C@H](CCCCN)C(N)=O [PL-34] (Ac-[dF][dK][dK][dL][dK][dK][dK][dF][dS][dK][dL][dW][dN][dW][dK]-NH2)
Hemolytic activity, absorbancy (OD value) at 570 nm ([1]; peptide 7.8125 μg/ml): 0.032
Hemolytic activity, absorbancy (OD value) at 570 nm ([1]; peptide 15.625 μg/ml): 0.041
Hemolytic activity, absorbancy (OD value) at 570 nm ([1]; peptide 31.25 μg/ml): 0.054
Hemolytic activity, absorbancy (OD value) at 570 nm ([1]; peptide 62.5 μg/ml): 0.061
Hemolytic activity, absorbancy (OD value) at 570 nm ([1]; peptide 125 μg/ml): 0.073
Hemolytic activity, absorbancy (OD value) at 570 nm ([1]; peptide 250 μg/ml): 0.087
Hemolytic activity, absorbancy (OD value) at 570 nm ([1]; peptide 500 μg/ml): 0.135
Hemolytic activity, absorbancy (OD value) at 570 nm ([1]; peptide 1000 μg/ml): 0.317
hemolytic toxicity (in words) ([1]; summary of Table 9): little hemolytic toxicity
MIC (Enterococcus faecium): 1.3 µM (≈ 2.67 µg/mL)
MIC [2]: 1.3 µM (≈ 2.67 µg/mL)
MIC ([3]; 08-17 (MSSE) Meticillin susceptible staphylococcus epidermidis): 1.3 µM (≈ 2.67 µg/mL)
MIC ([3]; (MRSE) Methicillin-resistant Staphylococcus epidermidis ATCC12228): 1.3 µM (≈ 2.67 µg/mL)
Minimal inhibitory concentration (aspergillus fumigatus): >64 µg/mL
Minimal inhibitory concentration (aspergillus flavous): >64 µg/mL
Minimal inhibitory concentration (candida albicans): 16 µg/mL (≈ 7.8 µM)
Minimal inhibitory concentration (candida glabrata): 32 µg/mL (≈ 15.6 µM)
Minimal inhibitory concentration (candida tropicalis): 4 µg/mL (≈ 1.95 µM)
Minimal inhibitory concentration (candida krusei): 8 µg/mL (≈ 3.9 µM)

CCS(=O)(=O)CCn1c([N+](=O)[O-])cnc1C [Tinidazole]
Mean survival Time (Escherichia; observed fourteen days): 7.5* day
Mortality of mice in different days after infection (Escherichia; day 4): 1
Mortality of mice in different days after infection (Escherichia; day 5): 2
Mortality of mice in different days after infection (Escherichia; day 6): 2
Mortality of mice in different days after infection (Escherichia; day 7): 1
Mortality of mice in different days after infection (Escherichia; day 8): 1
Mortality of mice in different days after infection (Escherichia; day 9): 2
Mean survival Time (Bacillus dysenteriae; observed fourteen days): 7.0* day
Mortality of mice in different days after infection (Bacillus dysenteriae; day 4): 2
Mortality of mice in different days after infection (Bacillus dysenteriae; day 5): 1
Mortality of mice in different days after infection (Bacillus dysenteriae; day 6): 2
Mortality of mice in different days after infection (Bacillus dysenteriae; day 7): 2
Mortality of mice in different days after infection (Bacillus dysenteriae; day 8): 1
Mortality of mice in different days after infection (Bacillus dysenteriae; day 9): 1
